Activity calls are given as the source filed them. No cut-off for these calls is given here.
How the values were obtained:
Hepatitis B virus = test: Antiviral activity against genotype D HBV infected in sodium taurocholate co-transporting polypeptide receptor-expressing stable HepG2 cell line assessed as suppression of HBsAg level incubated for 5 days by multiplex chemiluminescent MSD assay; format: functional, organism-based; settings: HepG2, 120 h
[1] = Oral bioavailability in Sprague-Dawley rat after 24 hrs by LC/MS/MS method; format: ADME, organism-based; settings: in vivo
[2] = Clearance in Sprague-Dawley rat at […], iv measured after 24 hrs by LC/MS/MS method; format: ADME, organism-based; settings: in vivo
Primary hepatocyte [3] = test: Effect on cccDNA level in HBV infected primary human hepatocyte at 0.5 uM media replaced for every 2 to 3 days incubated for 12 days by Southern blot analysis; format: functional, cell-based; settings: Hepatitis B virus, time 12.0 day
[4] = In vivo clearance in cynomolgus monkey; format: ADME, organism-based, Macaca fascicularis
[5] = Oral bioavailability in cynomolgus monkey at 5 mg/kg; format: ADME, organism-based, Macaca fascicularis; settings: in vivo
[6] = Oral bioavailability in dog at 5 mg/kg; format: ADME, organism-based, Canis lupus familiaris; settings: in vivo
[7] = In vivo clearance in dog; format: ADME, organism-based, Canis lupus familiaris
[8] = Hepatic extraction in dog; format: ADME, Canis lupus familiaris; settings: read-out: ERH
[9] = Lipophilicity, logD of the compound; format: physicochemical; settings: octanol/water
[10] = Oral bioavailability in rat at 5 mg/kg; format: ADME, organism-based; settings: in vivo
[11] = Hepatic extraction in rat; format: ADME; settings: read-out: ERH
[12] = In vivo clearance in rat; format: ADME, organism-based
[13] = Hepatic extraction in cynomolgus monkey; format: ADME, Macaca fascicularis; settings: read-out: ERH
Primary hepatocyte [14] = test: Effect on cccDNA level in HBV infected primary human hepatocyte at 0.25 uM media replaced for every 2 to 3 days incubated for 12 days by Southern blot analysis; format: functional, cell-based; settings: Hepatitis B virus, time 12.0 day

## COCCCOc1cc2c(cc1Cl)-c1cc(=O)c(C(=O)O)cn1N1CCC[C@H]21
Hepatitis B virus
  EC50: 55 nM

## CC(C)(C)N1Cc2cc(C#Cc3cnc(N4CC5CCC(C4)N5C4COC4)nc3)c(Cl)cc2-c2cc(=O)c(C(=O)O)cn21
Hepatitis B virus
  EC50: 2.1 nM
[1]
  bioavailability: 30%
[2]
  clearance: 15 mL/min/kg

## COCCCOc1cc2c(cc1Cl)-c1cc(=O)c(C(=O)O)cn1N(C(C)(C)C)[C@@H]2C
Hepatitis B virus
  EC50: 390 nM

## C[C@H](Cn1cnc2c(N)ncnc21)OCP(=O)(O)O
Primary hepatocyte [3]
  Activity: inactive

## COCCCOc1cc2c(cc1C1COC1)-c1cc(=O)c(C(=O)O)cn1N1[C@@H]2CCC1(C)C
Hepatitis B virus
  EC50: 13 nM

## CCOc1cc2c(cc1OCCCOC)[C@H]1CCC(C)(C)N1n1cc(C(=O)O)c(=O)cc1-2
Hepatitis B virus
  EC50: 7.5 nM
[1]
  bioavailability: > 100%
[2]
  clearance: 20 mL/min/kg

## CC(C)(C)N1Cc2cc(OCC3COC3)c(Cl)cc2-c2cc(=O)c(C(=O)O)cn21
Hepatitis B virus
  EC50: 7.6 nM
[1]
  bioavailability: 91%
[2]
  clearance: 20 mL/min/kg

## COCCCOc1cc2c(cc1C1CC1)-c1cc(=O)c(C(=O)O)cn1N1[C@@H]2CCC1(C)C
Hepatitis B virus
  EC50: 0.78 nM
[2]
  clearance: 16.7 mL/min/kg

## CC(C)(C)N1Cc2cc(OCCCOc3cnn(C(F)F)c3)c(Cl)cc2-c2cc(=O)c(C(=O)O)cn21
Hepatitis B virus
  EC50: 3.9 nM
[2]
  clearance: 25 mL/min/kg

## CC(C)(C)N1Cc2cc(N3CCCC3)c(Cl)cc2-c2cc(=O)c(C(=O)O)cn21
Hepatitis B virus
  EC50: 1 nM

## COCCCOc1cc2c(cc1OC)-c1cc(=O)c(C(=O)O)cn1[C@H](C(C)C)C2
[4]
  clearance: 11.3 mL/min/kg
[5]
  bioavailability: 84%
[6]
  bioavailability: 90%
Hepatitis B virus
  EC50: 15 nM
[7]
  clearance: 11.2 mL/min/kg
[8]
  hepatic extraction ratio: 0.37
[9]
  logD: 2.1
[10]
  bioavailability: 56%
[11]
  hepatic extraction ratio: 0.26
[12]
  clearance: 18.3 mL/min/kg
[13]
  hepatic extraction ratio: 0.43

## COCCCOc1cc2c(cc1Cl)-c1cc(=O)c(C(=O)O)cn1N1[C@@H]2COCC1(C)C
Hepatitis B virus
  EC50: 2.9 nM

## COCCCOc1cc2c(cc1Cl)-c1cc(=O)c(C(=O)O)cn1N1CC(C)(C)C[C@H]21
Hepatitis B virus
  EC50: 41 nM

## COCCCOc1cc2c(cc1Cl)-c1cc(=O)c(C(=O)O)cn1N1[C@H](C)CC[C@H]21
Hepatitis B virus
  EC50: 11 nM

## CN(C)CCCOc1cc2c(cc1Cl)-c1cc(=O)c(C(=O)O)cn1N(C(C)(C)C)C2
Hepatitis B virus
  EC50: 620 nM

## COCCCNc1cc2c(cc1Cl)-c1cc(=O)c(C(=O)O)cn1N(C(C)(C)C)C2
Hepatitis B virus
  EC50: 18 nM

## COCCCOc1cc2c(cc1Cl)-c1cc(=O)c(C(=O)O)cn1N1[C@@H]2CCC1(C)C
Hepatitis B virus
  EC50: 1.7 nM
[1]
  bioavailability: 66%
[2]
  clearance: 4.5 mL/min/kg

## COCCCOc1cc2c(cc1Cl)-c1cc(=O)c(C(=O)O)cn1[C@H](C(C)(C)C)C2
[4]
  clearance: 2.83 mL/min/kg
[5]
  bioavailability: 120%
Hepatitis B virus
  EC50: 150 nM
[7]
  clearance: 6 mL/min/kg
[8]
  hepatic extraction ratio: 0.2
[9]
  logD: 2.5
[10]
  bioavailability: 41%
[11]
  hepatic extraction ratio: 0.071
[12]
  clearance: 5 mL/min/kg
[13]
  hepatic extraction ratio: 0.11

## COCCCOc1cc2c(cc1Cl)-c1cc(=O)c(C(=O)O)cn1N1[C@@H]2CCCC1(C)C
Hepatitis B virus
  EC50: 2 nM

## COCCCOc1cc2c(cc1OC)-c1cc(=O)c(C(=O)O)cn1C(C1(C)CC1)C2 (stereo not given)
[9]
  logD: 2.2

## COCCOCc1cc2c(cc1Cl)-c1cc(=O)c(C(=O)O)cn1N(C(C)(C)C)C2
Hepatitis B virus
  EC50: 210 nM

## COCCCOc1cc2c(cc1OC)-c1cc(=O)c(C(=O)O)cn1N1[C@@H]2CCC1(C)C
Hepatitis B virus
  EC50: 2.1 nM
[1]
  bioavailability: 84%
[2]
  clearance: 16.7 mL/min/kg

## CC(C)(C)N1Cc2cc(OCC3CC(F)(F)C3)c(Cl)cc2-c2cc(=O)c(C(=O)O)cn21
Hepatitis B virus
  EC50: 12 nM
[1]
  bioavailability: 56%
[2]
  clearance: 4.17 mL/min/kg

## COCCCOc1cc2c(cc1Cl)-c1cc(=O)c(C(=O)O)cn1[C@H](C1(C)CC1)C2
Hepatitis B virus
  EC50: 3.8 nM
[9]
  logD: 2.4
Primary hepatocyte [14]
  Activity: inactive

## COCCCOc1cc2c(cc1OCC(F)F)-c1cc(=O)c(C(=O)O)cn1N1[C@@H]2CCC1(C)C
Hepatitis B virus
  EC50: 5.8 nM
[1]
  bioavailability: 58%
[2]
  clearance: 13.8 mL/min/kg

## COCCCOc1cc2c(cc1Cl)-c1cc(=O)c(C(=O)O)cn1N1[C@@H]2CC1(C)C
Hepatitis B virus
  EC50: 4 nM

## COCCCOc1cc2c(cc1OC(C)(C)C)-c1cc(=O)c(C(=O)O)cn1N1[C@@H]2CCC1(C)C
Hepatitis B virus
  EC50: 78 nM

## COCCCOc1cc2c(cc1OC(F)F)-c1cc(=O)c(C(=O)O)cn1N1[C@@H]2CCC1(C)C
Hepatitis B virus
  EC50: 0.97 nM
[1]
  bioavailability: 60%
[2]
  clearance: 9 mL/min/kg

## COCCCOc1cc2c(cc1Cl)-c1cc(=O)c(C(=O)O)cn1N1[C@@H]2CCC12CC2
Hepatitis B virus
  EC50: 1 nM

## CC(C)(C)N1Cc2cc(-c3ccccn3)c(Cl)cc2-c2cc(=O)c(C(=O)O)cn21
Hepatitis B virus
  EC50: 47 nM

## COCCCOc1cc2c(cc1OC(F)(F)F)-c1cc(=O)c(C(=O)O)cn1N1[C@@H]2CCC1(C)C
Hepatitis B virus
  EC50: 1.1 nM
[1]
  bioavailability: 47%
[2]
  clearance: 8 mL/min/kg

## CC(C)(C)N1Cc2cc(C#Cc3ccc(N4CC5CCC(C4)O5)nc3)c(Cl)cc2-c2cc(=O)c(C(=O)O)cn21
Hepatitis B virus
  EC50: 1.5 nM

## COCCCOc1cc2c(cc1Cl)-c1cc(=O)c(C(=O)O)cn1N1[C@H]2CCC1(C)C
Hepatitis B virus
  EC50: 420 nM

## CCc1cc2c(cc1OCCCOC)[C@H]1CCC(C)(C)N1n1cc(C(=O)O)c(=O)cc1-2
Hepatitis B virus
  EC50: 0.45 nM

## CC(C)(C)N1Cc2cc(C#CC3CC3)c(Cl)cc2-c2cc(=O)c(C(=O)O)cn21
Hepatitis B virus
  EC50: 16 nM

## COCCCOc1cc2c(cc1Cl)-c1cc(=O)c(C(=O)O)cn1N1[C@@H]2CC[C@@H]1C
Hepatitis B virus
  EC50: 5.4 nM

## COCCCOc1cc2c(cc1Cl)-c1cc(=O)c(C(=O)O)cn1N1CCC(C)(C)[C@H]21
Hepatitis B virus
  EC50: 12 nM

## COCCCOc1cc2c(cc1OC(C)C)-c1cc(=O)c(C(=O)O)cn1N1[C@@H]2CCC1(C)C
Hepatitis B virus
  EC50: 6.4 nM
[1]
  bioavailability: 95%
[2]
  clearance: 16.2 mL/min/kg

## COCCCOc1cc2c(cc1S(C)(=O)=O)-c1cc(=O)c(C(=O)O)cn1N1[C@@H]2CCC1(C)C
Hepatitis B virus
  EC50: 52 nM

## COCCCOc1cc2c(cc1Cl)-c1cc(=O)c(C(=O)O)cn1N1[C@@H]2CCC12COC2
Hepatitis B virus
  EC50: 72 nM

## COCCCOc1cc2c(cc1OCCCOC)[C@H]1CCC(C)(C)N1n1cc(C(=O)O)c(=O)cc1-2
Hepatitis B virus
  EC50: 11 nM

## COCCCOc1cc2c(cc1Cl)-c1cc(=O)c(C(=O)O)cn1N(C(C)(C)C)[C@H]2C
Hepatitis B virus
  EC50: 97 nM
